Measured values published in article PMC10600239, “Selective MCL-1 inhibitor ABBV-467 is efficacious in tumor models but is associated with cardiac troponin increases in patients” (Communications Medicine, 2023).
pEC50, pKi: −log10 of the molar value. Where “and” joins values, the source holds several entries; their conditions need not be identical. Equal entries are not always repeated. Where two headings read alike, the source gives them in different places.

Legend:
H929 cells = assay: In vitro cell viability assay (CellTiter-Glo); format: cell-based, human
Procedure: All cell lines were grown and treated in RPMI 1640 or Dulbecco’s modified Eagle medium (Sigma, St. Louis, MO) supplemented with 10% fetal bovine serum (Gibco) or 10% human serum (Sigma) and maintained in a humidified incubator at 5% CO2 and 37 °C. DLD-1, MV4-11, NCI-H929 (all ATCC, Manassas, VA, USA) and AMO-1 (DSMZ, Braunschweig, Germany) cells were plated 4000 cells per well in 384-well tissue culture plates and treated with compounds of interest for 24 h at 37 °C, 5% CO2 humidified incubator. Each concentration was tested in duplicate at least 3 separate times. Adherent cells were allowed to adhere overnight prior to treatment. Alternatively, AMO-1 or NCI-H929 cells were treated with ABBV-467 for the indicated contact times (1–24 h) at 37 °C in a 5% CO2 humidified incubator and washed 3 times with compound-free media prior to incubation for the remainder of a 24-h treatment period. Cell viability was subsequently determined using CellTiter-Glo (Promega, Madison, WI, USA) according to the manufacturer’s instructions.
For in vitro viability assays, mean EC50 and EC90 values were determined from the resulting dose-response curves from at least 3 independent experiments, and depict the mean ± standard error of the mean.
Fig. 2 Apoptosis induced by ABBV-467 is mechanism based and induces cell death in MCL-1-dependent cell lines after short target engagement periods. H929 cells were treated with ABBV-467 in the presence or absence of the pan-caspase inhibitor z-VAD-fmk (50 µM) and the impact on caspase-3/7 activation (a), mitochondrial membrane potential (ΔΨm; b), and apoptosis (c) determined. Alternatively, BAK-deficient SKBR3 cells were treated with ABBV-467 for 24 h and the impact on cell viability compared with the parental cell line, determined by CellTiter-Glo. Inset depicts a western blot of BAK and BAX expression in SKBR3 cell variants using GAPDH as a loading control. Each of the 3 proteins were probed on separate blots (d). Data in (a–d) are presented as the mean ± standard error of the mean. H929 and AMO-1 cells were treated with ABBV-467 at the indicated concentrations and the impact on caspase-3/7 activation and viability (DRAQ7-positive) cells determined over time by Incucyte®. Data are presented as the mean ± standard deviation (e). H929 or AMO-1 cells were cultured in media containing 10% human serum and treated with ABBV-467 for the indicated contact times. Cells were subsequently washed 3 times with drug-free media and incubated in drug-free media for the remainder of the 24-h treatment period at 37 °C before cell viability was determined by CellTiter-Glo. Mean EC50 and EC90 values were determined from the resulting dose-response curves from at least 3 independent experiments, each assessed in quadruplicate, and depict the mean ± standard error of the mean. Presented ABBV-467 dose-response curves in H929 and AMO-1 cells were compiled from at least 3 independent experiments (f).

monkey MCL1 = target: T1, monkey MCL1 (Macaca mulatta, UniProt F7HUE9); assay: TR-FRET binding assay, MCL-1 orthologs; set-up: species or system Monkey Macaca sp.
T1 construct: rhesus monkey (iso4, NM_001 1089 3 7, AA 171-327); made in house; host or cells: E. coli BL21(DE3)-T1R
Procedure: Binding affinities for MCL-1, BCL-2, BCL-XL, BCL-W, and BCL2-A1 were determined using a time-resolved fluorescence resonance energy transfer (FRET) assay. Test compounds were serially diluted in DMSO starting at […] (20× starting concentration; 100% DMSO followed by a 1:10 dilution of the compound DMSO plate into assay buffer); 10 µL of the compound in 10% DMSO was then transferred into a 384-well plate (low-volume Corning #3673 assay plate). Glutathione S-transferase (GST)-tagged recombinant BCL-2, BCL-XL, MCL-1, BCL-W, or BCL2-A1 protein (1 nM each) were mixed with 100 nM Oregon Green™-labeled f-BAK peptide probe and 1 nM Tb-labeled anti-GST antibody were mixed. Then 10 µL of a 2× protein/probe/antibody mix was added to each well of increasing concentrations of test compound in assay buffer (20 mM potassium phosphate, pH 7.6, 50 mM NaCl, 1 mM ethylenediaminetetraacetic acid disodium salt dihydrate, 0.05% pluronic acid F-68, 1 mM DL-dithiothreitol) at room temperature (final concentrations listed in Supplementary Table S2). […] Fluorescence was measured on the EnVision™ (Perkin Elmer) using a 340/35-nm excitation filter and 520/525- (F-Bak) and 495/510-nm (Tb-labeled anti-glutathione S-transferase [GST] antibody) emission filters. Dissociation constants were determined using Wang’s equation[35]. […]
Amino acid sequence homology determined with NCBI BLAST (http://blast.ncbi.nlm.nih.gov). […]

[1] = target: off-target receptors, ion channels, and transporters (Homo sapiens, UniProt Q06418); assay: Off-target profiling (Supplementary Data 1); conditions: TR-FRET Kinome; Invitrogen A-1169612.6 .05(Subs Conc)
[2] = target: off-target receptors, ion channels, and transporters (Homo sapiens, UniProt Q14164); assay: Off-target profiling (Supplementary Data 1); conditions: TR-FRET Kinome; Invitrogen A-1167389.7 .003(Subs Conc)
[3] = target: off-target receptors, ion channels, and transporters (Homo sapiens, UniProt P51812); assay: Off-target profiling (Supplementary Data 1); conditions: TR-FRET Kinome; Invitrogen A-1169612.6 .0015(Subs Conc)
Sequence of off-target receptors, ion channels, and transporters (Homo sapiens, UniProt P51812) (P51812 whole entry): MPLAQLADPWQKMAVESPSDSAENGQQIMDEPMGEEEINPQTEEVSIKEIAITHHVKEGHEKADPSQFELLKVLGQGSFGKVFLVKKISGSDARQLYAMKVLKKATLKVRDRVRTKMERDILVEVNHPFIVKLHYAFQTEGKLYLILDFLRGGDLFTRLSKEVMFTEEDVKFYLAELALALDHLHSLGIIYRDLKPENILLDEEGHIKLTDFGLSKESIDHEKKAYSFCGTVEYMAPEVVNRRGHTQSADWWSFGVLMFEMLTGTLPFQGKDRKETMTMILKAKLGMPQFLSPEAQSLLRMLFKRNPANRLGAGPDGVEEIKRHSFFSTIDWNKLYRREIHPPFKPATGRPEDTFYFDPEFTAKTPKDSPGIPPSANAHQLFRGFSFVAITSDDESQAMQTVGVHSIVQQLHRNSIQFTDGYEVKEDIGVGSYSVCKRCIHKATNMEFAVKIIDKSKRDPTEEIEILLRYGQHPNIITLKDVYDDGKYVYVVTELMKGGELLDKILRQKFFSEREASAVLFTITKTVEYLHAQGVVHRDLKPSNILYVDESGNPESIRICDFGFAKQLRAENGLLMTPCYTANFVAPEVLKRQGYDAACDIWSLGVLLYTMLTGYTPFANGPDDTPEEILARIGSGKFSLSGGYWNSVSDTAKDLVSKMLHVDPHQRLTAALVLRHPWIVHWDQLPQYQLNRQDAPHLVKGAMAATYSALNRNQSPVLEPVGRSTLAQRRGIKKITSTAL

T1 sequence (F7HUE9 171-327): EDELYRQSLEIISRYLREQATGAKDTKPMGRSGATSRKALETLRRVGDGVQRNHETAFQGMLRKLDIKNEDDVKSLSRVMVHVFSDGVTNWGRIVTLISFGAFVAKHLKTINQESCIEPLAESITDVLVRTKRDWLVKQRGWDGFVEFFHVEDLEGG
Sequence of off-target receptors, ion channels, and transporters (Homo sapiens, UniProt Q06418) (Q06418 41-890): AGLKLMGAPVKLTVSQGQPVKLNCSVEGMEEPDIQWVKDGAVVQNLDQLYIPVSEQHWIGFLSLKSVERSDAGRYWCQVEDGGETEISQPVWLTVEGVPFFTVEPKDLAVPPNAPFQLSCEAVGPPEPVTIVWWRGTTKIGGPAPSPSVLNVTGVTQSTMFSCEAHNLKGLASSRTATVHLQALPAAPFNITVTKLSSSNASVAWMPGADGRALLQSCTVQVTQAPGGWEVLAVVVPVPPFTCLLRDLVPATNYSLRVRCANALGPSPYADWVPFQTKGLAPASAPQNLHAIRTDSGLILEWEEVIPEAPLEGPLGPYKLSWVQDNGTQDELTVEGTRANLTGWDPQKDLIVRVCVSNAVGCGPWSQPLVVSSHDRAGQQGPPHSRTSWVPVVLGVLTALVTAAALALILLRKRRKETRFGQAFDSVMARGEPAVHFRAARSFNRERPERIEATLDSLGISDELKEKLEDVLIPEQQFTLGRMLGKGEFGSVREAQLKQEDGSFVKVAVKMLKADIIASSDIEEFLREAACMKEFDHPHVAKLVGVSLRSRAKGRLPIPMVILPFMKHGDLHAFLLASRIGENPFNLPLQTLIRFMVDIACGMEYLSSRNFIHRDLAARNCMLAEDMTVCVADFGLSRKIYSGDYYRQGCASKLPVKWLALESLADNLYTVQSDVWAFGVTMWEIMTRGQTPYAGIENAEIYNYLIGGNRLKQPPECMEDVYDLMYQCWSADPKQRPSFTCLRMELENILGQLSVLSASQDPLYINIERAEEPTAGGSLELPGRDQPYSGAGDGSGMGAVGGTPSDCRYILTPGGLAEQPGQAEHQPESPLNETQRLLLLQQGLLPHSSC
Sequence of off-target receptors, ion channels, and transporters (Homo sapiens, UniProt Q14164) (Q14164 whole entry): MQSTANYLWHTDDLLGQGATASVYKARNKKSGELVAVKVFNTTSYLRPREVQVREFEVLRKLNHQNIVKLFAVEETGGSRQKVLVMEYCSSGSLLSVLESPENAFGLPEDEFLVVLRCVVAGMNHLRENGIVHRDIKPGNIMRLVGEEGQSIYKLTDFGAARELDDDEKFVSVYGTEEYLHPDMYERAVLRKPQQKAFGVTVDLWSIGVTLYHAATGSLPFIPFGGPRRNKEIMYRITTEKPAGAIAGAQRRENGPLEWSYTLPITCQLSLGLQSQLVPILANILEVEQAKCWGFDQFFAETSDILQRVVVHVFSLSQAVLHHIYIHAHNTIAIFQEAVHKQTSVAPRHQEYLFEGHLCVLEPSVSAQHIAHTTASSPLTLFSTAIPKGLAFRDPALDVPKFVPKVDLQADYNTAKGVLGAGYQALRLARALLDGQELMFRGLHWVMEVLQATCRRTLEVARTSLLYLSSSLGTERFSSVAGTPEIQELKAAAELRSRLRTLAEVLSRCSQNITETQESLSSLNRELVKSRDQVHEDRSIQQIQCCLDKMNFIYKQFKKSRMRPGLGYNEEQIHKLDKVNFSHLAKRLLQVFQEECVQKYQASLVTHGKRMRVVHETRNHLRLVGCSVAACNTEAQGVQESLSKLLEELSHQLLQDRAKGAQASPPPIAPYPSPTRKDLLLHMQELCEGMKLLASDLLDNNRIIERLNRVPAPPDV

Structure (SMILES): Cc1c(Cl)c2c(Cl)c(C)c1-c1c(-c3ccc(F)cc3)sc3ncnc(c13)O[C@@H](C(=O)O)Cc1cc(ccc1OCc1ccnc(-c3ccc(OC[C@H]4COCCO4)cc3)n1)OC[C@@H](CN1CCN(C)CC1)O2 [ABBV-467]
- pEC50 (H929 cells; Homo sapiens, NCI-H929, 10% human serum, contact time 1 hr, washout, viability at 24 h, read-out: H929 Mean EC50): 7.07
- pEC50 (H929 cells; Homo sapiens, NCI-H929, 10% human serum, contact time 2 hr, washout, viability at 24 h, read-out: H929 Mean EC50): 7.21
- EC90 (H929 cells; Homo sapiens, NCI-H929, 10% human serum, contact time 2 hr, washout, viability at 24 h, read-out: H929 Mean EC90): 236 nM
- pEC50 (H929 cells; Homo sapiens, NCI-H929, 10% human serum, contact time 4 hr, washout, viability at 24 h, read-out: H929 Mean EC50): 7.72
- pEC50 (H929 cells; Homo sapiens, NCI-H929, 10% human serum, contact time 6 hr, washout, viability at 24 h, read-out: H929 Mean EC50): 7.93
- EC90 (H929 cells; Homo sapiens, NCI-H929, 10% human serum, contact time 6 hr, washout, viability at 24 h, read-out: H929 Mean EC90): 108 nM
- pEC50 (H929 cells; Homo sapiens, NCI-H929, 24 h, 10% human serum, contact time 24 hr, read-out: H929 Mean EC50): 8.82
- EC90 (H929 cells; Homo sapiens, NCI-H929, 24 h, 10% human serum, contact time 24 hr, read-out: H929 Mean EC90): 5.6 nM
- EC50 (H929 cells; Homo sapiens, NCI-H929, 24 h, read-out: H929 EC50 (nM, 10% FBS), 10% FBS, 24 h continuous treatment): 0.4 nM
- EC50 (H929 cells; Homo sapiens, NCI-H929, NCI-H929, arithmetic mean, read-out: Arithmetic Mean EC50 µM): 0.468 nM
- EC90 (H929 cells; Homo sapiens, NCI-H929, read-out: H929 Mean EC90, 10% human serum, contact time 1 hr, washout, viability at 24 h): 458 nM
- EC90 (H929 cells; Homo sapiens, NCI-H929, read-out: H929 Mean EC90, 10% human serum, contact time 4 hr, washout, viability at 24 h): 133 nM
- pEC50 (H929 cells; NCI-H929, individual determinations, read-out: Individual EC50): 9.23 and 9.16 and 9.44 and 9.27 and 9.54 and 9.50 and 9.43 and 9.14 and 9.33
- EC50 (H929 cells; read-out: H929 EC50 (nM, 10% FBS), 10% FBS, 24 h continuous treatment): 0.47 nM
- pKi (monkey MCL1): > 10.00
- TYRO3 - IC50 [1]: > 10000 nM
- IKKE - IC50 [2]: > 10000 nM
- Rsk2 - IC50 [3]: > 10000 nM
